Results from patent US11358933B2, “Compounds and methods for inhibiting CYP26 enzymes” (Queen's University at Kingston, priority 2017, dated 2022).

Legend:
[1] = test system: Cyp26a1-luc construct in MCF-7 cells; assay: Retinoid activity assay, Cyp26a1-luc reporter in MCF-7 cells; type: cell-based; details: for Rel. Luciferase Activity (mean): 24 hours, firefly relative to Renilla luciferase
Text: This retinoid activity assay measures the ability of test compounds to induce expression of a transiently transfected RA sensitive reporter construct. In this assay, MCF-7 cells are transfected with a construct comprising an upstream promoter of the CYP26A1 gene containing 2 RA response elements driving expression of firefly luciferase (pCYP26A1-luc). Since CYP26A1 is highly inducible by RA in these cells, this construct serves as a sensitive reporter of retinod-like transcriptional activity.
MCF-7 cells were maintained in a RPMI-1640 medium containing 10% FBS. Exponentially growing cells were harvested by incubation in trypsin. Cells were then collected and plated in 24-well plates at 50,000 cells/well. Once cells reached 80-90% confluence (e.g., the next day), cells were transfected with two plasmids. The first plasmid was CYP26A1-luc construct (375 ng). The second plasmid was a control plasmid comprising the Renilla luciferase gene driven by constitutive thymidine kinase promoter (pRL-tk) (25 ng). Transfection was performed using FuGene 6 transfection reagent (Promega) with a 1:3 ratio of DNA:FuGene. 24 hours after transfection, cells were treated with test compounds diluted in DMSO in triplicate at 0.1, 1 and 10 μM final concentrations. As a positive control for reporter activation, cells were also treated with RA diluted in DMSO at the same concentrations listed above. DMSO treatment alone served as a negative control. After 24 hours of treatment, cells were harvested in passive lysis buffer (Promega) and luciferase activity in cell lysates were read using a luminometer. Data are expressed as the activity of firefly luciferase relative to Renilla luciferase (see Tables 3-5). For CYP26A1 inhibitor compounds, no activation of the reporter was detected, while the related retinoid-like compound induces luciferase expression.

kasumi-1 human AML cells = assay: CD34+CD38- LSC analysis by FACS, Kasumi-1 cells with or without OP9 stroma; type: cell-based; details: 1 μM RA plus compound, OP9 stroma present, 72 hours
Description: Many human non-APL AML cell lines are sensitive to RA-induced differentiation. However, co-culture of leukemic cells with bone marrow stromal cells can block this effect of RA. This assay tests the ability of CYP26 inhibitor compounds to overcome the protective effect that stromal cells have on leukemic cell differentiation. For these experiments, OP9 mouse bone marrow stromal cells are grown MEM-α containing 20% FBS, in 24 well plates until a cell monolayer is formed. OP9 cells are then irradiated (15Gy) using a GammaCell 20 cesium-137 source (located at Queen's University) in order to induce growth arrest. Leukemic cells are then added to the irradiated monolayers, or control wells without OP9 cells. AML cell lines (150,000 cells) are then plated onto OP9 monolayers in their appropriated growth medium; THP-1 RPMI-1640 medium containing 10% FBS; MDSL, RPMI-1640 medium containing 10% FBS and 10 ng/ml recombinant human IL-3; Kasumi-1, RPMI-1640 containing 20% FBS; MV4-11, IMDM containing 10% FBS. […] Stained cells are then sorted by FACS in a BD FACS Aria 3 flow cytometer (Queen's University) using FACS Diva software, to assess percentage of cells that are CD11b^+, the relative expression levels of CD11b (by median fluorescence intensity—MFI), or percentage of CD34^+CD38^− leukemic stem cells (LSCs). […]

[2] = test system: RA target gene (CYP26A1) expression in MCF-7 cells; assay: Enhancement of RA activity assay, QPCR of CYP26A1 expression in MCF-7 cells; type: cell-based; details: 0.1 μM RA plus 1 μM compound, 24, 48, 72 hours
Description: An RA activity assay was used to measure the ability of compounds that inhibit CYP26 to enhance activity of RA, for example, by limiting its catabolism. This assay measured expression of endogenous RA target genes in MCF-7 cells that have been treated with RA and a compound of interest. A compound that inhibits CYP26 activity will have the effect of prolonging the induction of RA target genes in response to RA.
Exponentially growing MCF-7 cells were treated with trypsin, collected and plated into 6-well culture dishes at 300,000 cells per well. Once cells had reached confluency, they were treated with CYP26 inhibitor test compounds or with ketoconazole (a non-selective CYP inhibitor) at a final concentration of 1 μM, or an equal volume of DMSO as a control. […] RNA was harvested using Trizol reagent after 24, 48, and 72 hours of treatment. cDNA was synthesized from 2 μg of total RNA using Superscript III cDNA synthesis kit with random priming (available from Life Technologies, Burlington, ON, Canada). Analysis of expression of the RA inducible CYP26A1 gene was quantified by qPCR normalized against expression of PMM2 with Sybr Select Master Mix (Life Technologies) and gene specific primers in a two-step thermal cycling reaction. Data is provided for a CYP26B1 selective inhibitor, which enhances the induction of CYP26A1. […]

[3] = test system: mouse OP9 bone marrow stromal cells; assay: RA metabolism by OP9 bone marrow stromal cells; type: cell-based
Description: These experiments are to assess the ability of primary cells, or cell lines to metabolize RA, and to determine the effect of inhibition of CYP26A1 or CYP26B1 on this ability. For these experiments, cells are plated into 48-well plates and treated with a radiolabeled (^3H) RA. The extent of conversion of this labeled RA to water soluble metabolites is determined as above for in the cell-based inhibitor assay. Primary human bone marrow stromal cells (available from Lonza) were cultured in MyeloCult (available from Stem Cell Technologies, Vancouver, Canada). Mouse OP9 bone marrow stromal cells and MC3T3 pre-osteoblasts were cultured as above. Cells are plated in the appropriate culture medium and allowed to form a monolayer. Cells are then pre-treated with either DMSO (vehicle control) or RA (1 μM) for 24 hours to induce CYP26 expression. Vehicle, and RA induced cells are then exposed to ^3H-RA in the presence or absence of test CYP26 inhibitor to examine the effects on RA metabolism. Cells are incubated for 3 hours with labeled RA, and metabolites extracted and analyzed as above.

MV4-11 cells = assay: Leukemia cell apoptosis (FITC-Annexin V), MV4-11 cells; type: cell-based, human; details: 0.1 μM RA plus 1 μM compound, stromal cells present, 48 hours
Description: RA can also induce apoptosis is a variety of cell types, including AML cells. This experiment tests CYP26 inhibitor compounds for their ability to rescue RA-induced apoptosis in the presence of bone marrow stromal cells. For these experiments MV4-11 AML cells are plated as above, in the presence and absence of stromal monolayers. Cells are then treated for 48 hours with RA (0.1 μM). After the treatment period, cells are stained with a FITC-labeled annexin V antibody (available from Thermofisher Scientific), which binds to the surface of apoptotic cells. Cells are then sorted by FACS in a as above and data are expressed as percentage of annexin V^+ (apoptotic) cells.

## CC(C)(C)c1cccc(-c2cc3cc(/C=C/C(=O)O)ccc3[nH]2)c1 [Compound 026]
[1]
  Agonist activity in luciferase reporter transactivation experiment: did not show agonist activity
[1]; 0.1 μM
  Rel. Luciferase Activity (mean): .0522
[1]; 1 μM
  Rel. Luciferase Activity (mean): .0472
[1]; 10 μM
  Rel. Luciferase Activity (mean): .0678
kasumi-1 human AML cells
  Number of CD34+CD38- cells (LSCs): restored the ability of RA to reduce the number of
[2]
  RA target gene transcription on co-treatment with RA: enhanced RA target gene transcription, and prolonged this response to at least 72 hours
[3]
  RA metabolism, basal and RA-induced: efficiently blocked basal and RA-induced RA metabolism
MV4-11 cells
  RA-induced apoptosis (Annexin V positive cells): rescued by the addition of compound 026
